Laboratory results: US20240228482A1, “COMPOUNDS, COMPOSITIONS AND METHODS OF TREATING CANCER” (HOTSPOT THERAPEUTICS, INC., priority 2021, published 2024)

molecular target: T1, CBL-B (Homo sapiens, UniProt Q13191); test: CBL-B TR-FRET IC50 screening (E1/E2 ubiquitination, Biotin-Ubiquitin, Anti GST-Tb donor / Streptavidin-d2 acceptor); assay type: biochemical; conditions: CBL-B 10 nM final; 11-point titration from 100 uM; binned A-F; read-out: CBL-B TR-FRET activity IC50
T1 construct: GST
T1 sequence (Q13191 whole entry): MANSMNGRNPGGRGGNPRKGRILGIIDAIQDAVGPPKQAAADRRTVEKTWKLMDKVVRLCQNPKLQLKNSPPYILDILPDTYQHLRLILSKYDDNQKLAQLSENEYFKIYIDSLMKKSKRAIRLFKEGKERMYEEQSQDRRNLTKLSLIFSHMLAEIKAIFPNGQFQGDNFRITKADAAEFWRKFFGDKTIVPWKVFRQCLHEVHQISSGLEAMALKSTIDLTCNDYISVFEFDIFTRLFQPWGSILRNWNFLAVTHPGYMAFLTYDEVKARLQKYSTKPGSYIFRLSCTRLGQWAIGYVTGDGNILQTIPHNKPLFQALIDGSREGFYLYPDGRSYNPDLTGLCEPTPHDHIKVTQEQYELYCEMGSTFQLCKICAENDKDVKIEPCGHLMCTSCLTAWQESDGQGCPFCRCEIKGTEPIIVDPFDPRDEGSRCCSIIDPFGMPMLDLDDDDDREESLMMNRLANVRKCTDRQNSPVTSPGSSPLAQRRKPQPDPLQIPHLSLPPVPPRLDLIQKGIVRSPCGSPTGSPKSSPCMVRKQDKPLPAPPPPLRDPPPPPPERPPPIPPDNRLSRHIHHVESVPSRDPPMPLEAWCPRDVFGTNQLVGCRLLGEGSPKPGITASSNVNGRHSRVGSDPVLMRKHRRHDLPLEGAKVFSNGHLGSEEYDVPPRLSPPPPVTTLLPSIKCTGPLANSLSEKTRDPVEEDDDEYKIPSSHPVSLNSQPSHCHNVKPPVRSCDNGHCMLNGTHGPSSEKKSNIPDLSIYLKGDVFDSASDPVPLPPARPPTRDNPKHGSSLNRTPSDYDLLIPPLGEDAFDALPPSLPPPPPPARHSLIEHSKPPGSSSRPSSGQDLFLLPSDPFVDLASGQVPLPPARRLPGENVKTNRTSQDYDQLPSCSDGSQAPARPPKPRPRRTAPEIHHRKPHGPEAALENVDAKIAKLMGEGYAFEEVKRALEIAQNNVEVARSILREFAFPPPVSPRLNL

IC50 | SMILES
< 100 nM | C[C@H]1CCCN(Cc2cc(C(F)(F)F)c3cn(-c4cccc([C@H](c5nncn5C)C5CCC5)c4)c(=O)n3c2)C1 [Compound 85]
3000 to 10000 nM | Cn1cnnc1[C@H](c1cccc(-n2cc3c(C(F)(F)F)cc(CN4CC[C@H](C#N)C4)cn3c2=O)c1)C1CCC1 (single isomer, unassigned) [Compound 173]
1000 to 3000 nM | Cn1cnnc1[C@H](c1cccc(-n2cc3c(C(F)(F)F)cc(CN4CCC(C)(F)CC4)cn3c2=O)c1)C1CCC1 [Compound 160]
100 to 300 nM | C[C@H]1CCCCN1Cc1cc(C(F)(F)F)c2cn(-c3cccc([C@H](c4nncn4C)C4CCC4)c3)c(=O)n2c1 [Compound 362_P2]
100 to 300 nM | Cn1cnnc1[C@@H](c1cccc(-n2cc3c(C(F)(F)F)cc(CN4CC[C@@H](C(F)(F)F)C4)cn3c2=O)c1)C1CCC1 (single isomer, unassigned) [Compound 285]
< 100 nM | Cn1cnnc1[C@@H](c1cccc(-n2cc3c(C(F)(F)F)cc(CN4CCC[C@H](C(F)(F)F)C4)cn3c2=O)c1)C1CCC1 (single isomer, unassigned) [Compound 271]
1000 to 3000 nM | CC1CN(Cc2cc(C(F)(F)F)c3cn(-c4cccc([C@@H](c5nncn5C)C5CCC5)c4)c(=O)n3c2)CCC1(F)F (single isomer, unassigned) [Compound 170]
> 10000 nM | C[C@H]1CCCN(Cc2cc(C(F)(F)F)c3cn(-c4cccc([C@H](c5nncn5C)C5CCOCC5)c4)c(=O)n3c2)C1 (single isomer, unassigned) [Compound 358]

Second part, the compound before the results:

SMILES | IC50
Cc1c[nH]nc1[C@@H](c1cccc(-n2cc3c(C(F)(F)F)cc(CN4CCO[C@H](C)C4)cn3c2=O)c1)C1CCC1 [Compound 221] | 100 to 300 nM
CC1CN(Cc2cc(C(F)(F)F)c3cn(-c4cccc([C@]5(Cc6nncn6C)C[C@@H](C#N)C5)c4)c(=O)n3c2)CCC1(F)F (single isomer, unassigned) [Compound 99] | < 100 nM
CN1CCC=C(c2cc(C(F)(F)F)c3cn(-c4cccc(C5(Cc6nncn6C)COC5)c4)c(=O)n3c2)C1 [Compound 63] | 100 to 300 nM
C[C@@H](Cc1nnc[nH]1)c1cccc(-n2cc3c(C(F)(F)F)cccn3c2=O)c1 [Compound 47] | > 10000 nM
O=c1n(-c2cccc(C3(Cc4nncn4C(F)F)COC3)c2)cc2c(C(F)(F)F)cc(CN3CCC4(CC4)C3)cn12 [Compound 91] | < 100 nM
CC(=O)NCc1cc(C(F)(F)F)c2cn(-c3cccc(C4(Cc5nncn5C)COC4)c3)c(=O)n2c1 [Compound 139] | 100 to 300 nM
COC1(C[C@@H](c2cccc(-n3cc4c(C(F)(F)F)cc(CN5CCC[C@H](C)C5)cn4c3=O)c2)c2nncn2C)CC1 (single isomer, unassigned) [Compound 365] | 1000 to 3000 nM
CN1CC=C(c2cc(C(F)(F)F)c3cn(-c4cccc(C5(Cc6nncn6C)COC5)c4)c(=O)n3c2)CC1 [Compound 58, 2-(3-[3-[(4-methyl-1,2,4-triazol-3-yl)methyl]oxetan-3-yl]phenyl)-6-(1-methyl-3,6-dihydro-2H-pyridin-4-yl)-8-(trifluoromethyl)imidazo[1,5-a]pyridin-3-one] | 1000 to 3000 nM
[2H]c1nnc(CC2(c3cccc(-n4cc5c(C(F)(F)F)cc(CN6CCC[C@H](C)C6)cn5c4=O)c3)COC2)n1C [Compound 209] | < 100 nM
Cn1cnnc1CC1(c2cccc(-n3cc4c(C(F)(F)F)cccn4c3=O)c2)CN(C(=O)OC(C)(C)C)C1 [Compound 133] | > 10000 nM
Cc1c[nH]nc1[C@H](c1cccc(-n2cc3c(C(F)(F)F)cc(CN4CCO[C@H](C)C4)cn3c2=O)c1)C1COC1 [Compound 267] | > 10000 nM

same assay, conditions: second part of Table 2 (head 'Patent Cmpd No / Updated Activity'); same CBL-B TR-FRET IC50 bins A-F; read-out: Updated Activity

IC50 | SMILES
< 100 nM | C[C@@H]1COCCN1Cc1cc(C(F)(F)F)c2cn(-c3cccc([C@H](c4nncn4C)C4CCC4)c3)c(=O)n2c1 [Compound 489]
> 10000 nM | C[C@@H]1CN(Cc2cc(C(F)(F)F)c3cn(-c4cccc([C@@H](c5nncn5C)C5CC5)c4)c(=O)n3c2)CCO1 [Compound 612_P1]
< 100 nM | C[C@H]1CCCN(Cc2cc(C(F)(F)F)c3cn(-c4cccc([C@H](c5nncn5C)C5CC5)c4)c(=O)n3c2)C1 [Compound 472_P2]
< 100 nM | Cn1cnnc1[C@@H](c1cccc(-n2cc3c(C(F)(F)F)cc(CN4CCC[C@](C)(O)C4)cn3c2=O)c1)C1CCC1 [Compound 568]

Further lines, the compound ahead of its results:

SMILES | IC50
C[C@H]1CCCN(Cc2cc(C(F)(F)F)c3cn(-c4cccc([C@@H](c5nncn5C)N5CC(O)C5)c4)c(=O)n3c2)C1 (single isomer, unassigned) [Compound 407] | > 10000 nM
C[C@H]1CCCN(Cc2cc(C(F)(F)F)c3cn(-c4cccc([C@@H](c5nncn5C5CC5)C5CCC5)c4)c(=O)n3c2)C1 (single isomer, unassigned) [Compound 427] | > 10000 nM
Cc1cnoc1[C@@H](c1cccc(-n2cc3c(C(F)(F)F)cc(CN4CCC[C@H](C)C4)cn3c2=O)c1)C1CCC1 (single isomer, unassigned) [Compound 384] | > 10000 nM
CCN(Cc1cc(C(F)(F)F)c2cn(-c3cccc([C@H](c4nncn4C)C4CCC4)c3)c(=O)n2c1)S(=O)(=O)CC [Compound 592] | < 100 nM
C[C@H]1CCCN(Cc2cc(C(F)(F)F)c3cn(-c4cccc([C@]5(c6nncn6C)C[C@](C)(O)C5)c4)c(=O)n3c2)C1 (single isomer, unassigned) [Compound 418] | 3000 to 10000 nM
C[C@H]1CCCN([C@H](C)c2cc(C(F)(F)F)c3cn(-c4cccc(C5(c6nncn6C)CCC5)c4)c(=O)n3c2)C1 [Compound 506_P1] | < 100 nM
COC[C@H]1C[C@@H]([C@H](c2cccc(-n3cc4c(C(F)(F)F)cc(CN5CCC[C@H](C)C5)cn4c3=O)c2)c2nncn2C)C1 (single isomer, unassigned) [Compound 495] | 100 to 300 nM
Cn1cnnc1[C@@H](c1cc(F)cc(-n2cc3c(C(F)(F)F)cc(CN4CCC(C)(F)CC4)cn3c2=O)c1)C1CCC1 (single isomer, unassigned) [Compound 534] | < 100 nM
CC(=O)N1CCC[C@@H](c2cc(C(F)(F)F)c3cn(-c4cccc([C@H](c5nncn5C)C5CCC5)c4)c(=O)n3c2)C1 (single isomer, unassigned) [Compound 397] | 100 to 300 nM
Cn1cnnc1[C@@H](c1cccc(-n2cc3c(C(F)(F)F)cc(C(=O)N4CCC(C)(F)CC4)cn3c2=O)c1)C1CCC1 [Compound 430] | 301 to 1000 nM
CO[C@H]1C[C@](c2cccc(-n3cc4c(C(F)(F)F)cc([C@H](C)N5CC[C@@H](F)C5)cn4c3=O)c2)(c2nncn2C)C1 (single isomer, unassigned) [Compound 618] | 100 to 300 nM
Cn1cnnc1[C@@H](c1cccc(-n2cc3c(C(F)(F)F)cc(CN4CCC5(CCO5)CC4)cn3c2=O)c1)C1CCC1 [Compound 524] | < 100 nM
Cn1cnnc1[C@@H](c1cc(-c2ccns2)cc(-n2cc3c(C(F)(F)F)cccn3c2=O)c1)C1CCC1 (single isomer, unassigned) [Compound 459] | > 10000 nM
CN(CCC(=O)O)Cc1cc(C(F)(F)F)c2cn(-c3cccc([C@H](c4nncn4C)C4CCC4)c3)c(=O)n2c1 [Compound 595] | < 100 nM
COC[C@H]1C[C@H]([C@H](c2cccc(-n3cc4c(C(F)(F)F)cc(CN5CCC[C@H](C)C5)cn4c3=O)c2)c2nncn2C)C1 (single isomer, unassigned) [Compound 493] | > 10000 nM
CC(C)n1cnnc1[C@H](c1cccc(-n2cc3c(C(F)(F)F)cc(CN4CCC[C@H](C)C4)cn3c2=O)c1)C1CCC1 (single isomer, unassigned) [Compound 428] | > 10000 nM
